According to US7326684B2, “Peptides for enhancing resistance to microbial infections” (priority 2002, dated 2008):
Like-named read-outs stand apart in the source and are kept apart here. *1 amine or outer side, *2 acyl side, *3 side chain or, on linkers, in order; H or OH if unused. Where a SMILES comes first, the peptide text is derived from it. Where no end group is shown, it is not given here. [ ]: non-standard residue; d: D form. Tyr(3-125I) = 3-[125I]iodotyrosine, O=C([C@H](Cc1ccc(O[*:3])c([125I])c1)N[*:1])[*:2]; Tyr(3-I) = N[C@@H](Cc1ccc(O)c(I)c1)C(=O)O

Experiments:
[1] = system: mouse peritoneal macrophages infected with S. typhimurium 415; assay: Combined action of streptomycine and peptide on digestion of S. typhimurium 415 by mouse peritoneal macrophages in vitro; conditions: streptomycine 50 μg/ml alone or 10 μg/ml + peptide 1 nM
[2] = biological target: non-opioid receptors for β-endorphin on T lymphocytes; type: binding, human
[3] = system: T lymphocytes from the blood of healthy donors; assay: Con A-induced proliferation of T lymphocytes; type: cell-based, human
[4] = biological target: non-opioid receptors for β-endorphin on T lymphocytes; type: binding, human; conditions: for Ki: read-out: Ki, inhibition of [125I]β-endorphin binding
[5] = system: mouse peritoneal macrophages infected with S. typhimurium 415; assay: Phagocytosis (digestion) of S. typhimurium 415 by mouse peritoneal macrophages in vitro; conditions: for Time within which phagocytes completely digested the captured microbes: peptide 1 nM; for BCA, bacterial cytocidal activity, percentage of phagocytes destroyed by intracellular bacteria / PA, phagocytic activity, percentage of macrophages participating in phagocytosis / PN, phagocytic number, average number of microbes per macrophage: tuftsin 100 nM, ± SEM
in vivo = conditions: BCA, mouse, ip
[6] = mouse, in vivo
[7] = biological target: high-affinity (non-opioid) β-endorphin receptors on murine peritoneal macrophages; conditions: read-out: Ki, inhibition of [125I]β-endorphin binding to non-opioid receptors
[8] = biological target: non-opioid (naloxone-insensitive) receptors for β-endorphin on T lymphocytes from normal human blood (human); assay: radioligand saturation binding on human T lymphocytes, Scatchard plot, in the absence of naloxone
[9] = biological target: non-opioid (naloxone-insensitive) receptors for β-endorphin on T lymphocytes from normal human blood (human); assay: radioligand saturation binding on human T lymphocytes, Scatchard plot, in the presence of naloxone
[10] = biological target: non-opioid (naloxone-insensitive) receptors for β-endorphin on T lymphocytes from normal human blood (human); assay: displacement of 1 nM [125I]β-endorphin from human T lymphocytes; Ki=IC50/(1+[L]/Kd)
[11] = biological target: non-opioid (naloxone-insensitive) receptors for β-endorphin on T lymphocytes from normal human blood (human); assay: radioligand saturation binding on human T lymphocytes, 4 °C, Scatchard analysis
[12] = biological target: non-opioid (naloxone-insensitive) receptors for β-endorphin on T lymphocytes from normal human blood (human); assay: radioligand saturation binding on human T lymphocytes, Scatchard analysis, one-site model
[13] = read-out: Kd of labeled peptide binding to T lymphocytes
[14] = T lymphocytes of healthy donors
[15] = phagocytosis time 1 h, pentarphin, cyclopentarphin 1 nM
[16] = phagocytosis time 2 h, pentarphin, cyclopentarphin 1 nM
[17] = phagocytosis time 4 h, pentarphin, cyclopentarphin 1 nM
[18] = phagocytosis time 7 h, pentarphin, cyclopentarphin 1 nM
[19] = phagocytosis time 12 h, pentarphin 1 nM

Molecule: [H]/N=C(/N)N[C@H]1[C@H](O)[C@@H](O)[C@H](O[C@@H]2O[C@@H](C)[C@](O)(C=O)[C@H]2O[C@@H]2O[C@@H](CO)[C@H](O)[C@@H](O)[C@@H]2NC)[C@@H](N/C(N)=N\[H])[C@@H]1O [Streptomycine]
- BCA, bacterial cytocidal activity ([1]; phagocytosis time 1 h, ± SEM): 1.04 ± 0.32%
- PA, phagocytic activity ([1]; phagocytosis time 1 h, ± SEM): 86.45 ± 2.13%
- PN, phagocytic number ([1]; phagocytosis time 1 h, ± SEM): 8.56 ± 0.76 n
- BCA, bacterial cytocidal activity ([1]; phagocytosis time 2 h, ± SEM): 1.12 ± 0.74%
- PA, phagocytic activity ([1]; phagocytosis time 2 h, ± SEM): 96.17 ± 1.76%
- PN, phagocytic number ([1]; phagocytosis time 2 h, ± SEM): 2.03 ± 0.46 n
- BCA, bacterial cytocidal activity ([1]; phagocytosis time 4 h): 0%
- PA, phagocytic activity ([1]; phagocytosis time 4 h): 0%
- PN, phagocytic number ([1]; phagocytosis time 4 h): 0 n

Molecule: CC(C)[C@H](N)C(=O)N[C@@H](CCCCN)C(=O)NCC(=O)N[C@@H](Cc1ccccc1)C(=O)N[C@@H](Cc1ccc(O)c(I)c1)C(=O)O [[^125I]-H-VKGFY-OH] (H-VKGF[Tyr(3-I)]-OH)
- Kd [2, 13]: 36.3 ± 0.5 nM

Molecule: CC(C)C[C@H](NC(=O)[C@H](CS)NC(=O)[C@@H](NC(=O)[C@H](CC(C)C)NC(=O)[C@@H](N)CO)[C@@H](C)O)C(=O)N[C@H](C(=O)N[C@@H](CCCCN)C(=O)NCC(=O)N[C@@H](Cc1ccccc1)C(=O)N[C@@H](Cc1ccc(O)c(I)c1)C(=O)O)C(C)C [[^125I]-immunorphin] (H-SLTCLVKGF[Tyr(3-I)]-OH)
- Kd [2, 13]: 7 ± 0.3 nM
- Kd ([2]; read-out: Kd of labeled peptide binding to T lymphocytes in the presence of naloxone): 7.4 ± 0.2 nM

Molecule: C=CCN1CC[C@]23c4c5ccc(O)c4O[C@H]2C(=O)CC[C@@]3(O)[C@H]1C5 [naloxone]
- Effect on Con A-induced proliferation of T lymphocytes [3, 14]: not active

Molecule: H-CLVKGFY-OH [H-CLVKGFY-OH]
- Ki [4]: 3.4 nM

Molecule: H-LTCLVKGFY-OH
- Ki [4]: 1 nM

Molecule: H-LVKGFY-OH [H-LVKGFY-OH]
- Ki [4]: 8 nM

Molecule: H-TCLVKGFY-OH
- Ki [4]: 2.2 nM

Molecule: H-VKGFY-OH [Pentarphin, Val-Lys-Gly-Phe-Tyr]
- Time within which phagocytes completely digested the captured microbes [5]: ≤ 12 h
- BCA, bacterial cytocidal activity, percentage of phagocytes destroyed by intracellular bacteria [5, 15]: 1.08 ± 0.71%
- PA, phagocytic activity, percentage of macrophages participating in phagocytosis [5, 15]: 84.08 ± 2.12%
- PN, phagocytic number, average number of microbes per macrophage [5, 15]: 7.11 ± 0.15 n
- BCA, bacterial cytocidal activity, percentage of phagocytes destroyed by intracellular bacteria [5, 16]: 1.55 ± 0.65%
- PA, phagocytic activity, percentage of macrophages participating in phagocytosis [5, 16]: 89.15 ± 1.78%
- PN, phagocytic number, average number of microbes per macrophage [5, 16]: 9.29 ± 0.74 n
- BCA, bacterial cytocidal activity, percentage of phagocytes destroyed by intracellular bacteria [5, 17]: 9.32 ± 1.32%
- PA, phagocytic activity, percentage of macrophages participating in phagocytosis [5, 17]: 66.82 ± 1.14%
- PN, phagocytic number, average number of microbes per macrophage [5, 17]: 6.02 ± 0.66 n
- PA, phagocytic activity, percentage of macrophages participating in phagocytosis [5, 18]: 23.31 ± 0.84%
- PN, phagocytic number, average number of microbes per macrophage [5, 18]: 1.03 ± 0.24 n
- BCA, bacterial cytocidal activity, percentage of phagocytes destroyed by intracellular bacteria [5, 19]: 2.35 ± 1.21%
- PA, phagocytic activity, percentage of macrophages participating in phagocytosis [5, 19]: 3.73 ± 0.64%
- PN, phagocytic number, average number of microbes per macrophage [5, 19]: 0.66 ± 0.12 n
- Ki [4]: 15 nM
- LD50 (in vivo): 2500 mg/kg
- Immunogenicity [6]: No immunogenicity
- Effect on Con A-induced proliferation of T lymphocytes [3]: stimulate
- Stimulating effect on T lymphocyte proliferation in presence of naloxone [3]: not inhibited by naloxone
- Kd [2, 13]: 36.3 ± 0.5 nM
- Ki [7]: 12 nM

Molecule: SLTCLVKGFY [immunorphin]
- Effect on Con A-induced proliferation of T lymphocytes [3, 14]: stimulate

Molecule: Thr-Lys-Pro-Arg (TKPR; printed: Thr-Lys-Pro-Arg) [Tuftsin, reference compound]
- BCA, bacterial cytocidal activity, percentage of phagocytes destroyed by intracellular bacteria [5, 15]: 1.41 ± 0.27%
- PA, phagocytic activity, percentage of macrophages participating in phagocytosis [5, 15]: 66.07 ± 1.82%
- PN, phagocytic number, average number of microbes per macrophage [5, 15]: 5.84 ± 0.27 n
- BCA, bacterial cytocidal activity, percentage of phagocytes destroyed by intracellular bacteria [5, 16]: 8.12 ± 0.99%
- PA, phagocytic activity, percentage of macrophages participating in phagocytosis [5, 16]: 74.11 ± 1.42%
- PN, phagocytic number, average number of microbes per macrophage [5, 16]: 7.31 ± 0.25 n
- BCA, bacterial cytocidal activity, percentage of phagocytes destroyed by intracellular bacteria [5, 17]: 29.34 ± 0.75%
- PA, phagocytic activity, percentage of macrophages participating in phagocytosis [5, 17]: 61.97 ± 1.18%
- PN, phagocytic number, average number of microbes per macrophage [5, 17]: 6.29 ± 0.48 n
- BCA, bacterial cytocidal activity, percentage of phagocytes destroyed by intracellular bacteria [5, 18]: 31.46 ± 1.23%
- PA, phagocytic activity, percentage of macrophages participating in phagocytosis [5, 18]: 38.48 ± 0.23%
- PN, phagocytic number, average number of microbes per macrophage [5, 18]: 3.32 ± 0.56 n
- BCA, bacterial cytocidal activity, percentage of phagocytes destroyed by intracellular bacteria [5, 19]: 7.64 ± 1.38%
- PA, phagocytic activity, percentage of macrophages participating in phagocytosis [5, 19]: 9.31 ± 0.29%
- PN, phagocytic number, average number of microbes per macrophage [5, 19]: 1.36 ± 0.86 n
- Activity, times lower than pentarphin/cyclopentarphin ([5]; tuftsin acted the same way at 100 nM versus 1 nM): 100 times

Molecule: [125I]-immunorphin (peptide)
- Kd [8]: 7 nM
- Kd [9]: 7.4 nM

Molecule: [Met^5]enkephalin [Met-enkephalin, reference compound]
- Inhibition of β-endorphin binding in displacement assay [4]: not inhibited
- Effect on Con A-induced proliferation of T lymphocytes [3]: not active

Molecule: cyclo(Val-Lys-Gly-Phe-Tyr) (VKGFY; cyclic; printed: Val-Lys-Gly-Phe-Tyr) [Cyclopentarphin]
- Time within which phagocytes completely digested the captured microbes [5]: ≤ 7 h
- BCA, bacterial cytocidal activity, percentage of phagocytes destroyed by intracellular bacteria [5, 15]: 1.25 ± 0.64%
- PA, phagocytic activity, percentage of macrophages participating in phagocytosis [5, 15]: 87.81 ± 3.14%
- PN, phagocytic number, average number of microbes per macrophage [5, 15]: 7.78 ± 0.39 n
- BCA, bacterial cytocidal activity, percentage of phagocytes destroyed by intracellular bacteria [5, 16]: 1.06 ± 0.49%
- PN, phagocytic number, average number of microbes per macrophage [5, 16]: 8.81 ± 0.27 n
- BCA, bacterial cytocidal activity, percentage of phagocytes destroyed by intracellular bacteria [5, 17]: 2.13 ± 0.60%
- PA, phagocytic activity, percentage of macrophages participating in phagocytosis [5, 17]: 57.43 ± 2.01%
- PN, phagocytic number, average number of microbes per macrophage [5, 17]: 5.32 ± 0.51 n
- BCA, bacterial cytocidal activity, percentage of phagocytes destroyed by intracellular bacteria [5, 18]: 2.22 ± 1.31%
- PA, phagocytic activity, percentage of macrophages participating in phagocytosis [5, 18]: 1.74 ± 0.44%
- PN, phagocytic number, average number of microbes per macrophage [5, 18]: 0.27 ± 0.20 n

Molecule: immunorphin (H-…-OH) (peptide)
- Ki [10]: 0.6 nM

B1: (3-[125I]iodotyrosyl27)β-endorphin (peptide)
peptide: YGGFMTSEKSQTPLVTLFKNAIIKNA[Tyr(3-125I)]KKGE
- Kd [11]: 0.25 nM

B2: H-CLVKGFY-OH (peptide)
peptide: H-CLVKGFY-OH
- Ki [10]: 3.4 nM

B3: H-…-OH (peptide)
peptide: H-LTCLVKGFY-OH
- Ki [10]: 1 nM

B4: H-TCLVKGFY-OH (peptide)
peptide: H-TCLVKGFY-OH
- Ki [10]: 2.2 nM

B5: H-LVKGFY-OH (peptide)
peptide: H-LVKGFY-OH
- Ki [10]: 8 nM

B6: pentarphin (H-VKGFY-OH) (peptide)
peptide: H-VKGFY-OH
- Ki [10]: 15 nM

B7: [125I]-H-VKGFY-OH (peptide)
peptide: H-VKGFY-OH
modifications: also: 125I label, residue not given here
- Kd [12]: 36.3 nM
